Literature values in patent publication US20090148399A1, “Controlled release attractant for gravid female mosquitoes” (priority 2007, published 2009).

Tested on: gravid female C. quinquefasciatus
Details: gravid female Culex quinquefasciatus

SMILES | oviposition attractancy
Cc1c[nH]c2ccccc12 [3-Methyl indole] | highly effective attractant
CCCCCCCCCC[C@H](OC(C)=O)[C@H]1CCCC(=O)O1 [(5R,6S)-6-acetetoxy-5-hexadecanolide] | attracts other females of the same species to deposit their eggs gregariously
